In publication PMC2873402, “Discovery of High-Affinity Protein Binding Ligands – Backwards” (PLoS ONE, 2010):

Key:
AKT1 = AKT1 (Homo sapiens, UniProt P31749); assay: AKT1 binding site mapping by crosslinking and MS; parameters: N-terminal vector leader of pEXP5-NT (6xHis + TEV site by own knowledge of the vector); made in house; host or cells: Expressway Mini Cell-Free Expression System (in vitro translation); conditions: for region of AKT1 crosslinked: 10 µM peptide, 2.5 µM AKT1, 100 µM BS3-d0/d4 (1:1), trypsin, MALDI-TOF-MS; for likely binding site on AKT1: from relative intensity of fragments and proximity of lysines; for AKT1 lysine(s) likely cross-linked: surface-exposed lysines mapped on PDB 3CQU
Source text: As an orthogonal assessment of whether the peptides bind different sites on AKT1, each peptide was crosslinked to AKT1 in vitro using a commercially available set of deuterated / non-deuterated crosslinkers (BS^3-(d0/d4)). The crosslinkers chemically conjugate primary amines that are in close proximity to one another (11.4 Å) and the crosslinked complex is then subjected to enzymatic digestion and analysis by mass spectrometry. Crosslinked peptides are identified by the presence of a pair of ions that are separated by 4 mass units indicating crosslinking with both non-deuterated and deuterated crosslinkers. Peptide 1 has two possible crosslinking sites (N-terminus and K at position 3) and peptide 2 has one possible crosslinking site at the N-terminus. A 10 µM solution of each peptide was added to 2.5 µM AKT1 and incubated for 1 hour prior to the addition of a 100 µM solution of a 1∶1 mixture of crosslinkers. After crosslinking, the mixture was digested with trypsin and analyzed by MALDI-TOF-MS. […] The location of each AKT1 fragment was mapped onto a crystal structure of residues 139–480 of AKT1 (PDB #3CQU) (Figure 4C).
10 µM of peptide 1 and peptide 2 were individually incubated with 2.5 µM of recombinant AKT1 (produced in house) in PBS buffer (200 uL total volume) for one hour, after which an equimolar ratio of BS^3-d0∶BS^3-d4 (Thermo Scientific, Rockford, IL) crosslinker was added for a total crosslinker concentration of 100 µM. The same concentration of crosslinker was added to a 200 µL control sample containing only 2.5 µM AKT1. Crosslinking was performed for one hour. After crosslinking, free peptide and crosslinker were removed from the mixture with a 30 kDa spin filter and at the same time the buffer was exchanged with 100 mM ammonium bicarbonate pH 8.0. Proteomics grade trypsin (Sigma-Aldrich, St. Louis, MO) was added to all samples at a ratio of 1∶30 (mol∶mol) Trypsin∶AKT1 and incubated overnight at 37°C. Digested samples were lyophilized and reconstituted in 5 µL acetonitrile∶H2O (1∶1) containing 0.1% trifluoroacetic acid and spotted on a MALDI target plate along with ∝-cyano-4-hydroxycinnamic acid MALDI matrix. Mass spectra were obtained on an Ultraflex-III MALDI TOF-TOF (Bruker, Billerica, MA) and analyzed in FlexAnalysis (Bruker, Billerica, MA).

[1] = target: synbody variant in which the C-terminal Cys was replaced with a Lys-Biotin; assay: pull-down; IP: biotin synbody on streptavidin magnetic beads; ^35S-labeled AKT1 in the IVT mixture diluted from 41.5 nM to 80 pM (AKT1 about 3% of total protein); liquid scintillation counting; 1:1 fit in GraphPad Prism

Sequence of AKT1 (P31749 whole entry, the tested form may be a part): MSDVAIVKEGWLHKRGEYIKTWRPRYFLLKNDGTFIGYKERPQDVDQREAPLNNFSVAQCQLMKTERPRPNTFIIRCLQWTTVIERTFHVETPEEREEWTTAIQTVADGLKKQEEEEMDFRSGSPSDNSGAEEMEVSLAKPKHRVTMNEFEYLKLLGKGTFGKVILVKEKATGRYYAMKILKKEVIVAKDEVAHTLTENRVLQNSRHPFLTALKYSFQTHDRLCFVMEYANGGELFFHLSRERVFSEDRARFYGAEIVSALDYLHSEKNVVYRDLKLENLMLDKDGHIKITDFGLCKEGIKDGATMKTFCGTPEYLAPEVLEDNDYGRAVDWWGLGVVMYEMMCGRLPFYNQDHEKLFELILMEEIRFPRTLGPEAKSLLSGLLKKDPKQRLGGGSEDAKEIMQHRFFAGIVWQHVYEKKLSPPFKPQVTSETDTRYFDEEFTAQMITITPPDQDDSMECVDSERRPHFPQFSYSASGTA
Sequence of ^35S-labeled AKT1 produced by in vitro translation (P31749 whole entry): as the sequence (P31749 whole entry, the tested form may be a part) above

Substance | region of AKT1 crosslinked (AKT1) | likely binding site on AKT1 (AKT1) | AKT1 lysine(s) likely cross-linked (AKT1) | Kd [1] [nM]
AHKVVPQRQIRHAYNRYGSG [peptide 1, 20-aa peptide arm of the synbody] | crosslinked to a region of AKT1 that spans the Protein Kinase (PK) and AGC Kinase domain | in a region of low homology between AKT1, AKT2, and AKT3 | ^419Lys | 
FRGWAHIFFGPHVIYRGGSG [peptide 2, 20-aa peptide arm of the synbody] | crosslinked to multiple regions on AKT1 (Figure 4A, Figure 4B, Table S1), with the majority of crosslinking occurring in the PK domain | primary binding site for peptide 2 is likely on the PK domain and that a secondary binding site lies on the AGC domain | ^182Lys, ^276Lys, and ^481Lys | 
^35S-labeled AKT1 produced by in vitro translation (from UniProt P31749 1-480) (natural protein) |  |  |  | 4.9
